Source: ChEMBL document CHEMBL1275498, “Disposition, metabolism, and excretion of [14C]doripenem after a single 500-milligram intravenous infusion in healthy men” (Antimicrob Agents Chemother, 2008)

Tests used:
[1] = AUC (last) in healthy man plasma assessed as doripenem-M-1 at 500 mg, iv administered as 1 hr infusion by LC-MS/MS analysis; assay type: ADME, organism-based; parameters: dose 500 mg, time 0 - last, route intravenous; conditions: human, in vivo
[2] = AUC (last) in healthy man whole blood assessed as total compound-derived radioactivity at 500 mg, iv administered as 1 hr infusion by Liquid scintillation counting; assay type: ADME, organism-based; parameters: dose 500 mg, time 0 - last, route intravenous; conditions: human, in vivo
[3] = Drug excretion in healthy man feces at 500 mg, iv administered as 1 hr infusion measured after 7 days by Liquid scintillation counting; assay type: ADME, organism-based; conditions: human, in vivo
[4] = Drug excretion in healthy man urine at 500 mg, iv administered as 1 hr infusion measured after 8 to 12 hrs by Liquid scintillation counting; assay type: ADME, organism-based; conditions: human, in vivo
[5] = Drug excretion in healthy man urine at 500 mg, iv administered as 1 hr infusion measured after 12 to 24 hrs by Liquid scintillation counting; assay type: ADME, organism-based; conditions: human, in vivo
[6] = Elimination rate constant in plasma of healthy man assessed as doripenem-M-1, dosed at 500 mg, iv administered as 1 hr infusion; assay type: ADME, organism-based; conditions: human, in vivo
[7] = Half life in healthy man plasma assessed as doripenem-M-1 at 500 mg, iv administered as 1 hr infusion by LC-MS/MS analysis; assay type: ADME, organism-based; conditions: human, in vivo
[8] = Elimination rate constant in plasma of healthy man assessed as total compound-derived radioactivity, dosed at 500 mg, iv administered as 1 hr infusion; assay type: ADME, organism-based; conditions: human, in vivo
[9] = Clearance in healthy man plasma at 500 mg, iv administered as 1 hr infusion by LC-MS/MS analysis; assay type: ADME, organism-based; conditions: male, human
[10] = Tmax in healthy man plasma assessed as total compound-derived radioactivity at 500 mg, iv administered as 1 hr infusion by Liquid scintillation counting; assay type: ADME, organism-based; conditions: human, in vivo
[11] = Tmax in healthy man plasma assessed as doripenem-M-1 at 500 mg, iv administered as 1 hr infusion by LC-MS/MS analysis; assay type: ADME, organism-based; conditions: human, in vivo
[12] = Drug excretion in healthy man urine at 500 mg, iv administered as 1 hr infusion measured after 4 to 8 hrs by Liquid scintillation counting; assay type: ADME, organism-based; conditions: human, in vivo
[13] = Cmax in healthy man plasma assessed as doripenem-M-1 at 500 mg, iv administered as 1 hr infusion by LC-MS/MS analysis; assay type: ADME, organism-based; parameters: dose 500 mg, route intravenous; conditions: human, in vivo
[14] = Half life in healthy man plasma assessed as total compound-derived radioactivity at 500 mg, iv administered as 1 hr infusion by Liquid scintillation counting; assay type: ADME, organism-based; conditions: human, in vivo
[15] = AUC (last) in healthy man plasma assessed as total compound-derived radioactivity at 500 mg, iv administered as 1 hr infusion by Liquid scintillation counting; assay type: ADME, organism-based; parameters: dose 500 mg, time 0 - last, route intravenous; conditions: human, in vivo
[16] = Renal clearance in healthy man dosed at 500 mg, iv administered as 1 hr infusion; assay type: ADME, organism-based, Kidney; conditions: male, human, in vivo
[17] = Cmax in healthy man plasma at 500 mg, iv administered as 1 hr infusion by LC-MS/MS analysis; assay type: ADME, organism-based; parameters: dose 500 mg, route intravenous; conditions: male, human
[18] = AUC (last) in healthy man plasma at 500 mg, iv administered as 1 hr infusion by LC-MS/MS analysis; assay type: ADME, organism-based; parameters: dose 500 mg, time 0 - last, route intravenous; conditions: male, human
[19] = Renal clearance in healthy man assessed as doripenem-M-1, dosed at 500 mg, iv administered as 1 hr infusion; assay type: ADME, organism-based, Kidney; conditions: human, in vivo
[20] = AUC (0 to infinity) in healthy man plasma assessed as total compound-derived radioactivity at 500 mg, iv administered as 1 hr infusion by Liquid scintillation counting; assay type: ADME, organism-based; parameters: dose 500 mg, route intravenous, time infinity; conditions: human, in vivo
[21] = Tmax in healthy man whole blood assessed as total compound-derived radioactivity at 500 mg, iv administered as 1 hr infusion by Liquid scintillation counting; assay type: ADME, organism-based; conditions: human, in vivo
[22] = Elimination rate constant in plasma of healthy man dosed at 500 mg, iv administered as 1 hr infusion; assay type: ADME, organism-based; conditions: male, human
[23] = Cmax in healthy man plasma assessed as total compound-derived radioactivity at 500 mg, iv administered as 1 hr infusion by Liquid scintillation counting; assay type: ADME, organism-based; parameters: dose 500 mg, route intravenous; conditions: human, in vivo
[24] = AUC (0 to infinity) in healthy man plasma assessed as doripenem-M-1 at 500 mg, iv administered as 1 hr infusion by LC-MS/MS analysis; assay type: ADME, organism-based; parameters: dose 500 mg, time infinity, route intravenous; conditions: human, in vivo
[25] = Tmax in healthy man plasma at 500 mg, iv administered as 1 hr infusion by LC-MS/MS analysis; assay type: ADME, organism-based; conditions: male, human
[26] = Drug excretion in healthy man urine at 500 mg, iv administered as 1 hr infusion measured after 7 days by Liquid scintillation counting; assay type: ADME, organism-based; conditions: human, in vivo
[27] = Drug excretion in healthy man urine at 500 mg, iv administered as 1 hr infusion measured after 0 to 12 hrs by Liquid scintillation counting; assay type: ADME, organism-based; conditions: human, in vivo
[28] = Drug excretion in healthy man urine at 500 mg, iv administered as 1 hr infusion measured after 4 hrs by Liquid scintillation counting; assay type: ADME, organism-based; conditions: human, in vivo
[29] = Half life in healthy man plasma at 500 mg, iv administered as 1 hr infusion by LC-MS/MS analysis; assay type: ADME, organism-based; conditions: male, human
[30] = Cmax in healthy man whole blood assessed as total compound-derived radioactivity at 500 mg, iv administered as 1 hr infusion by Liquid scintillation counting; assay type: ADME, organism-based; parameters: dose 500 mg, route intravenous; conditions: human, in vivo
[31] = AUC (0 to infinity) in healthy man plasma at 500 mg, iv administered as 1 hr infusion by LC-MS/MS analysis; assay type: ADME, organism-based; parameters: dose 500 mg, time infinity, route intravenous; conditions: male, human

Structure (SMILES): C[C@@H](O)[C@H]1C(=O)N2[C@@H]1[C@@H](C)C(S[C@@H]1CN[C@H](CNS(N)(=O)=O)C1)=[14C]2C(=O)O [[14C]-DORIPENEM]
- AUC [1]: 4030 ng·h/mL
- AUC [2]: 20200 ng·h/mL
- Drug uptake [3]: 0.72%
- Drug uptake [4]: 1.62%
- Drug uptake [5]: 0.9%
- kel [6]: 0.275 h⁻¹
- t1/2 [7]: 2.54 h
- kel [8]: 0.438 h⁻¹
- clearance [9]: 267 mL/min
- Tmax [10]: 1.02 h
- Tmax [11]: 1.01 h
- Drug uptake [12]: 6.69%
- Cmax [13]: 1560 ng/mL
- t1/2 [14]: 1.59 h
- AUC [15]: 37500 ng·h/mL
- CL renal at 1 h [16]: 208 mL/min
- Cmax [17]: 22900 ng/mL
- AUC(0-t) at 1 h [18]: 31500 ng·h/mL
- CLr [19]: 18.9 L/h
- AUC [20]: 39500 ng·h/mL
- Tmax [21]: 1.02 h
- k el at 1 h [22]: 0.000183 s⁻¹
- Cmax [23]: 22100 ng/mL
- AUC [24]: 4980 ng·h/mL
- Tmax [25]: 1.02 h
- Drug uptake [26]: 95.28%
- Drug uptake [27]: 93.44%
- Drug uptake [28]: 85.13%
- half-life [29]: 1.07 h
- Cmax [30]: 13200 ng/mL
- AUC(0-inf) [31]: 31800 ng·h/mL
